The target in data set [1] is BRD4 (BD1+BD2) bromodomain (Homo sapiens (Human), UniProt O60885). Put plainly: BRD4 binding inhibition (AlphaScreen, GST-BRD4 vs tetraacetylated histone H4 peptide). An outline of the steps: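 GST-BRD4 (BD1+BD2) and biotinylated tetraacetyl-histone H4 peptide, each at 100 nM in HEPES pH 7.4 buffer with BSA and DTT, were combined with compound. Glutathione acceptor and streptavidin donor beads were added, then incubated 30 min at room temperature in the dark. Read-out was AlphaScreen signal.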
(In Alpha technology, singlet oxygen from a donor bead excites a nearby acceptor bead.)

The subject of data set [2] is acute myelogenous leukemia cells (MV-4-11 cells).
For data set [3], the system named is thymus cancer cells (Ty-82 cells). As to the kind of experiment: Cytotoxicity to thymus cancer cells (Ty-82 cells), WST-1. To be noted: Homo sapiens, TY82, 72 h.
Experimental: The following experiment was performed to evaluate the cytotoxicity of [1,2,4]triazolo[4,3-a]quinoxaline derivative according to the present invention to thymus cancer cells (Ty-82 cells).
First, thymus cancer cells (Ty-82 cells) were distributed in a 96 well plate at the density of 2.5×10^4 cells/well. 24 hours later, the plated cells were treated with the compounds of the present invention dissolved in DMSO at the different concentrations ranging from 0.01 μM to 10 μM. 72 hours later, the activities of the compounds were determined using WST-1 reagent.
Data set [4] deals with acute myelogenous leukemia cells (MV-4-11 cells). As to the kind of experiment: Cytotoxicity to acute myelogenous leukemia cells (MV-4-11 cells), CCK-8. To be noted: Homo sapiens, MV4-11, 72 h.
Setting [5] is: GST-BRD4 (BD1+BD2) / biotinylated acetyl-histone H4 (Lys5,8,12,16) peptide, read-out: IC50, BRD4 binding inhibition.
The mark [6] stands for this setting: GST-BRD4 (BD1+BD2) vs biotinylated acetyl-histone H4 peptide, AlphaScreen, read-out: BRD4 IC50.
Where [7] appears, read: read-out: Ty-82 Cytotoxicity IC50.
Setting [8] is: read-out: MV-4-11 Cytotoxicity IC50.
Setting [9] is: read-out: IC50, cytotoxicity against thymus cancer cells.
Where [10] appears, read: read-out: IC50, cytotoxicity against acute myelogenous leukemia cells.

Like-named read-outs stand apart in the source and are kept apart here. Bounds are passed on as bounds.

In general, IC50 refers to the midpoint of a concentration-inhibition curve. Take `Cc1nnc2c(NCCCCNC(=O)[C@@H](O)C(C)C)nc3cc(N4CCSCC4)ccc3n12` [Example 525, N-[4-(7-thiomorphonyl-4-yl-1-methyl-[1,2,4]triazolo[4,3-a]quinoxaline-4-ylamino)-butyl]-2-(S)-hydroxy-3-methyl-butyramide]: the figures for the IC50 in data set [1] (setting [5]), in data set [1] (setting [6]) and in data set [2] were no more than 50 nM, 11 nM and 200 nM, respectively.
Turning to `CCc1nnc2c(NCCCCNC(=O)CC(C)C)nc3cc(OC)ccc3n12` [Example 622, [4-(7-methoxy-1-ethyl-[1,2,4]triazolo[4,3-a]quinoxaline-4-ylamino)-butyl]-3-methyl-butyramide], the values for the IC50 in data set [1] (setting [5]), in data set [1] (setting [6]) and in data set [2] were no more than 50 nM, 20 nM and 290 nM, respectively.
In the same order, the values of `COc1ccc2nc(NCCCCNC(=O)CC(C)(C)C)c3nnc(C)n3c2c1` [Example 124, [4-(8-methoxy-1-methyl-[1,2,4]triazolo[4,3-a]quinoxaline-4-ylamino)-butyl]-3,3-dimethyl-butyramide] are no more than 50 nM, 29 nM and 700 nM.
`COc1cc2nc(NCCCCNC(=O)NC3CCCCC3)c3nnc(C)n3c2cc1OC` [Example 93, 1-cyclohexyl-3-[4-(7,8-dimethoxy-1-methyl-[1,2,4]triazolo[4,3-a]quinoxaline-4-ylamino)-butyl]-urea]: the IC50 in data set [1] (setting [5]) was no more than 50 nM; in data set [1] (setting [6]), 39 nM; in data set [3] (setting [7]), 560 nM; in data set [4] (setting [8]), 340 nM.
Take `COc1cc2nc(NCCCCNC(=O)OC3CCCC3)c3nnc(C)n3c2cc1OC` [Example 66, [4-(7,8-dimethoxy-1-methyl-[1,2,4]triazolo[4,3-a]quinoxaline-4-ylamino)-butyl]-carbamic acid cyclopentyl-ester]: the IC50 in data set [1] (setting [5]) was no more than 50 nM; in data set [1] (setting [6]) it was 13 nM; in data set [3] (setting [9]) it was no more than 500 nM; in data set [3] (setting [7]), 58 nM; in data set [4] (setting [10]), no more than 200 nM; in data set [4] (setting [8]), 110 nM.
With `COc1cc2nc(NCCCCNC(=O)OC(C)(C)C)c3nnc(C)n3c2cc1OC` [Example 57, [4-(7,8-dimethoxy-1-methyl-[1,2,4]triazolo[4,3-a]quinoxaline-4-ylamino)-butyl]-carbamic acid-tert-butylester], the IC50 in data set [1] (setting [5]) was no more than 50 nM; in data set [1] (setting [6]), 20 nM; in data set [3] (setting [7]), 740 nM; in data set [4] (setting [8]), 760 nM.
Take `COc1cc2nc(NCCCCNC(=O)c3cccc(Cl)c3Cl)c3nnc(C)n3c2cc1OC` [Example 102, 2,3-dichloro-N-[4-(7,8-dimethoxy-1-methyl-[1,2,4]triazolo[4,3-a]quinoxaline-4-ylamino)-butyl]-benzamide]: the results for the IC50 in data set [1] (setting [5]), in data set [3] (setting [7]) and in data set [4] (setting [8]) were no more than 50 nM, 840 nM and 360 nM, respectively.
`Cc1nnc2c(NCCCCNC(=O)NC(C)C)nc3cc4c(cc3n12)OCCO4` [Example 192, 1-isopropyl-3-[4-(1-methyl-8,9-dihydro-7,10-dioxa-2,3,5,11b-tetraaza-cyclopenta[a]anthracene-4-ylamino)-butyl]-urea]: the IC50 was no more than 50 nM in data set [1] (setting [5]), 34 nM in data set [1] (setting [6]), 680 nM in data set [3] (setting [7]) and 420 nM in data set [4] (setting [8]).
Regarding `COc1c(C)ccc2c1nc(NCCCCNC(=O)CC(C)C)c1nnc(C)n12` [Example 135, N-[4-(6-methoxy-1,7-dimethyl-[1,2,4]triazolo[4,3-a]quinoxaline-4-ylamino)-butyl]-3-methyl-butyramide], the figures for the IC50 in data set [1] (setting [6]), in data set [3] (setting [7]) and in data set [4] (setting [8]) were 61 nM, 730 nM and 360 nM, respectively.
Consider `COc1ccc2c(c1)nc(NCCCCNC(=O)CC(C)C)c1nnc(C)n12` [Example 285, N-[4-(7-methoxy-1-methyl-[1,2,4]triazolo[4,3-a]quinoxaline-4-ylamino)-butyl]-3-methyl-butyramide], for which the IC50 in data set [1] (setting [5]) is no more than 50 nM; in data set [1] (setting [6]), 17 nM; in data set [3] (setting [9]), no more than 500 nM; in data set [3] (setting [7]), 91 nM; in data set [4] (setting [10]) it was no more than 200 nM; in data set [4] (setting [8]), 10 nM.
As to `COc1cc2nc(NCCCCNC(=O)OCC(C)C)c3nnc(C)n3c2cc1OC` [Example 62, [4-(7,8-dimethoxy-1-methyl-[1,2,4]triazolo[4,3-a]quinoxaline-4-ylamino)-butyl]-carbamic acid isobutylester], the IC50 in data set [1] (setting [5]) is no more than 10 nM; in data set [1] (setting [6]) it was 7 nM; in data set [3] (setting [9]) it was no more than 500 nM; in data set [3] (setting [7]), 290 nM; in data set [4] (setting [10]), no more than 200 nM; in data set [4] (setting [8]) it was 120 nM.
As for `COc1cc2nc(NCCCCNC(=O)Cc3cccs3)c3nnc(C)n3c2cc1OC` [Example 84, N-[4-(7,8-dimethoxy-1-methyl-[1,2,4]triazolo[4,3-a]quinoxaline-4-ylamino)-butyl]-2-thiophene-2-yl-acetamide], the IC50 was no more than 50 nM in data set [1] (setting [5]); 14 nM in data set [1] (setting [6]); no more than 500 nM in data set [3] (setting [9]); 27 nM in data set [3] (setting [7]); no more than 200 nM in data set [4] (setting [10]); 10 nM in data set [4] (setting [8]).
In the case of `COc1ccc2c(c1)nc(NCCCCNC(=O)OCC(C)C)c1nnc(C)n12` [Example 279, [4-(7-methoxy-1-methyl-[1,2,4]triazolo[4,3-a]quinoxaline-4-ylamino)-butyl]-carbamic acid isobutylester], the IC50 in data set [1] (setting [5]) is no more than 50 nM; in data set [1] (setting [6]) it was 18 nM; in data set [3] (setting [9]), no more than 500 nM; in data set [3] (setting [7]), 120 nM; in data set [4] (setting [10]), no more than 200 nM; in data set [4] (setting [8]) it was 140 nM.
Consider `CCC(C)C(=O)NCCCCNc1nc2cc(OC)c(OC)cc2n2c(C)nnc12` (centres unmarked) [Example 77, N-[4-(7,8-dimethoxy-1-methyl-[1,2,4]triazolo[4,3-a]quinoxaline-4-ylamino)-butyl]-2-methyl-butyramide], for which the IC50 in data set [1] (setting [5]) was no more than 50 nM; in data set [1] (setting [6]), 22 nM; in data set [3] (setting [7]), 920 nM; in data set [4] (setting [10]), no more than 200 nM; in data set [4] (setting [8]) it was 150 nM.
With `Cc1nnc2c(NCCCCOC(=O)CC(C)(C)C)nc3ccccc3n12` [Example 633], the IC50 in data set [1] (setting [5]) was no more than 50 nM; in data set [1] (setting [6]), 24 nM; in data set [3] (setting [7]), 900 nM; in data set [4] (setting [8]), 750 nM.
The corresponding values for `COCCOc1cc2nc(NCCCCNC(=O)OC(C)C)c3nnc(C)n3c2cc1OCCOC` [Example 165, {4-[7,8-bis-(2-methoxy-ethoxy)-1-methyl-[1,2,4]triazolo[4,3-a]quinoxaline-4-ylamino]-butyl}-carbamic acid isopropylester] are no more than 50 nM, 26 nM, 580 nM and 220 nM.
In the case of `Cc1nnc2c(NCCCCNC(=O)OC3CCCC3)nc3cc4c(cc3n12)OCCO4` [Example 190, [4-(1-methyl-8,9-dihydro-7,10-dioxa-2,3,5,11b-tetraaza-cyclopenta[a]anthracene-4-ylamino)-butyl]-carbamic acid cyclopentylester], the IC50 is no more than 50 nM in data set [1] (setting [5]); 28 nM in data set [1] (setting [6]); 650 nM in data set [3] (setting [7]); no more than 200 nM in data set [4] (setting [10]); 90 nM in data set [4] (setting [8]).
Take `COc1cc2nc(NCCCCNC(=O)Oc3ccccc3)c3nnc(C)n3c2cc1OC` [Example 67, [4-(7,8-dimethoxy-1-methyl-[1,2,4]triazolo[4,3-a]quinoxaline-4-ylamino)-butyl]-carbamic acid phenylester]: the IC50 in data set [1] (setting [6]) is 19 nM; in data set [1] (IC50, BRD4 binding inhibition, GST-BRD4 (BD1+BD2) / biotinylated acetyl-histone H4 (Lys5,8,12,16) peptide) it was no more than 50 nM; in data set [3] (setting [9]), no more than 500 nM; in data set [3] (setting [7]), 170 nM; in data set [4] (setting [10]) it was no more than 200 nM; in data set [4] (setting [8]), 140 nM.
`COCCOc1cc2nc(NCCCCNC(=O)OCC(C)C)c3nnc(C)n3c2cc1OCCOC` [Example 168, {4-[7,8-bis-(2-methoxy-ethoxy)-1-methyl-[1,2,4]triazolo[4,3-a]quinoxaline-4-ylamino]-butyl}-carbamic acid isobutylester]: the IC50 in data set [1] (setting [5]) is no more than 50 nM; in data set [1] (setting [6]) it was 16 nM; in data set [3] (setting [7]) it was 600 nM; in data set [4] (setting [10]), no more than 200 nM; in data set [4] (setting [8]), 90 nM.
